# Paper PMC8774648, “Effects of Baicalein and Chrysin on the Structure and Functional Properties of β-Lactoglobulin” (Foods, 2022)
# Several values for one entry are separate records, joined by “and”; a condition that tells them apart may be missing. Equal entries are not always repeated. Where two headings read alike, the source gives them in different places. Marks after values point to notes of the source that are not given here.
# Tests used:
# β-lactoglobulin (BLG) [1] = molecular target: T1, β-lactoglobulin (BLG) (Bos taurus, UniProt P02754); assay: Intrinsic fluorescence quenching of BLG by Bai/Chr (Stern–Volmer and double logarithmic equations); type: binding; conditions: for Ksv (Stern–Volmer quenching constant) / Kd: pH 6.8; for Kd: read-out: Ka (binding constant) (converted)
# T1 construct: purchased Sigma–Aldrich Co. (St. Louis, MO, USA)
# T1 sequence (P02754 17-178): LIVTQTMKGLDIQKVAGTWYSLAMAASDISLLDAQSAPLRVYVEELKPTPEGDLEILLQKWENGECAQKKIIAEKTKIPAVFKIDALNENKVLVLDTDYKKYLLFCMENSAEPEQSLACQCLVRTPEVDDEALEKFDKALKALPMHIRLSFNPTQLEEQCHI
# Method: (§1) Intrinsic fluorescence spectroscopic test was measured on a F–7000 spectrophotometer (Hitachi, Japan) equipped with temperature controller according to the method described in the previous study. Briefly, 3 mL solution of BLG (20.0 µM) was titrated by continuously adding different amounts of Bai or Chr (0–20.0 µM). The fluorescence spectra were recorded at different temperatures (298 K, 304 K, and 310 K) with the excitation wavelength of 280 nm and the excitation and emission slit set at 2.5 nm. Moreover, synchronous fluorescence spectra were conducted by setting the wavelength intervals (λem–λex) at 15 nm and 60 nm, respectively. The 3D fluorescence spectra (molar ratios of BLG to Bai/Chr were 1:0 and 1:1) were recorded at excitation and emission wavelength range of 200−600 nm. All the fluorescence values were corrected to eliminate the internal filtering effect according to the previous method, and were used to evaluate the quenching mechanism of Bai/Chr binding to BLG by using the following equation [21]:(1) F0/F=1+Kqτ0[Q]=1+KSV[Q] where F and F0 are the fluorescence intensities of fluorophore with and without quencher; Ksv denotes the Stern–Volmer quenching constant; Kq is the quenching rate constant (Kq = Ksv/τ0), and τ0 is the average lifetime of the biomolecule in the absence of a quencher (τ0 = 10^−8 s); [Q] represents the experimental concentration of Bai/Chr.
# For static fluorescence quenching mechanism, the binding constant (Ka) and the number of binding sites (n) could be determined by the following equation [22]:(2) logF0−F/F=nlogKa−nlog1/[Qt]−(F0−F)[Pt]/F0 where [Qt] and [Pt] are the concentrations of Bai/Chr and BLG, respectively.
# β-lactoglobulin (BLG) [2] = molecular target: T1, β-lactoglobulin (BLG); assay: Thermodynamic parameters of Bai/Chr–BLG binding (Van't Hoff equation)
# Method: In order to determine the primary forces between BLG and Bai/Chr, thermodynamic parameters were calculated using the following equations [23]:(3) logKa=−ΔH°/2.303RT+ΔS°/2.303R (4) ΔG°=ΔH°−TΔS° where R and T represent gas constant (8.314 J mol^−1 K^−1) and temperature (298, 304, and 310 K), respectively. Enthalpy change (ΔH°) and entropy change (ΔS°) of interaction between ligands and biomolecules are the main criteria for evaluating acting force, and free energy (ΔG°) is the main criteria for estimating the spontaneity of interaction.
# β-lactoglobulin (BLG) [3] = molecular target: T1, β-lactoglobulin (BLG); assay: Three-dimensional fluorescence spectra of BLG with Bai/Chr; conditions: c(BLG) = 20.0 µM, c(Bai/Chr) = 20.0 μM
# Method: as §1
# β-lactoglobulin (BLG) [4] = molecular target: T1, β-lactoglobulin (BLG); assay: CD spectra, secondary structure contents of BLG
# Method: The CD spectra in the range of 200–250 nm were obtained from a CD spectrometer (MOS 450, Bio–Logic, Claix, France) equipped with 1.0 mm path length cuvette under the constant nitrogen flush. The solutions were prepared with molar ratios of Bai or Chr to BLG of 0:1, 1:1, and 2:1, respectively. The contents of secondary structure of BLG were determined based on our previously reported study.
# β-lactoglobulin (BLG) [5] = molecular target: T1, β-lactoglobulin (BLG); assay: Free sulfhydryl (SH) content of BLG (DTNB); conditions: Bai/Chr 0 to 20.0 µM, BLG 20.0 µM
# Method: The content of free SH was determined by spectrophotometry according to the report by Takić et al. with minor modifications. Briefly, Bai/Chr concentrations were varied from 0 to 20.0 µM, and BLG was kept at 20.0 µM. Then the two solutions were incubated with 10.0 mM DTNB in 50 mM PBS (pH 6.8) for 30 min at room temperature. The absorbance of the sample at 412 nm was recorded and the molar extinction coefficient (14,360 M^−1 cm^−1) was obtained from the standard curve of L-cysteine, which was used to calculate the number of total sulfhydryl groups per gram of protein.
# β-lactoglobulin (BLG) [6] = molecular target: T1, β-lactoglobulin (BLG); assay: Protein surface hydrophobicity (PSH) of BLG with ANS probe
# Method: PSH of BLG in the presence or absence of Bai or Chr was determined using ANS as a fluorescent probe. In the BLG solution (20.0 µM) alone or Bai/Chr–BLG mixture the ANS solution (5 mM) was continuously added until the fluorescence intensity of the mixture remained constant. The fluorescence intensity of the sample was recorded in the wavelength range of 400–600 nm upon 380 nm excitation. The PSH values were calculated by the following equations [26]:(5) [ANS]bound=F/B (6) [ANS]free=[ANS]total−[ANS]bound (7) F/[ANS]free=−F/Kdapp−Fmax/Kdapp (8) PSH=Fmax/[BLG]Kdapp where [ANS]free and [ANS]bound are the concentration of free and bound ANS, respectively. Kdapp is the apparent dissociation constant of ANS, Fmax is the maximum fluorescence intensity at saturating ANS concentration and B is the proportionality coefficient.
# β-lactoglobulin (BLG) [7] = molecular target: T1, β-lactoglobulin (BLG); assay: Foaming ability and foaming stability of BLG
# Method: Foaming ability (FA) and foaming stability (FS) were measured as described by Wang et al. with some modifications. A certain amount of BLG solution (1.0 mg mL^−1) was added to a 100 mL cylinder, and Bai or Chr was added to form solutions with different ratios of BLG to Bai or Chr (40:1, 30:1, 20:1, 10:1). The initial height H0 of the foam was recorded. The foam was then sheared at 10,000 rpm in a high-speed dispersion machine for 1 min and the height of the foam was recorded as H1. The height of the foam was recorded as H2 30 min later. The FA (%) and FS (%) were calculated according to the following equations:(9) FA (%)=H1−H0/H0×100 (10) FS (%)=H2−H0/H1−H0×100
# β-lactoglobulin (BLG) [8] = molecular target: T1, β-lactoglobulin (BLG); assay: Emulsifying ability and emulsifying stability of BLG
# Method: Emulsifying ability (EA) and emulsifying stability (ES) were investigated by the method of Xiong et al. with slight modification. BLG solution (1 mg mL^−1) was added to Bai/Chr to form the solutions with different ratios of BLG to Bai/Chr (40:1, 30:1, 20:1, 10:1), and then soybean oil was added to form BLG solution containing 10% (v/v) oil. The emulsion was fully dispersed for 2 min at a rate of 7000 r min^−1 and repeated for three times. At 0 and 10 min, 30 µL of emulsion was extracted from the bottom of the sample and immediately added to 3 mL of 0.1% SDS solution. The absorbance of the sample was measured at 500 nm and recorded as A0 and A10, respectively. The EA (m^2 g^−1) and ES (min) were calculated according to the following equations:(11) EA (m^2 g^−1)=2×2.303/c×Φ×L×10^4×A0×D (12) ES (min)=A0/A0−A10×10 where c is the weight of the BLG per unit volume (g mL^−1), Φ is the volume fraction of the oil phase, L is the length of light path, and D is the dilution factor, D = 100.
# [9] = molar ratio of Bai/Chr to BLG 1:1
# [10] = molar ratio of Bai/Chr to BLG 2:1
# [11] = molar ratio of Bai/Chr to BLG 2:1, listed as Bai–BLG
smiles,measurement,setting,value
"O=c1cc(-c2ccccc2)oc2cc(O)c(O)c(O)c12 [Bai, baicalein]",n (number of binding sites),β-lactoglobulin (BLG) [1]; T = 298 K,1.03 ± 0.03
same,Ksv (Stern–Volmer quenching constant),β-lactoglobulin (BLG) [1]; T = 298 K,5.75 ± 0.01 ^a ×10^4 L mol^−1
same,Kd,β-lactoglobulin (BLG) [1]; T = 298 K,3.6 µM
same,n (number of binding sites),β-lactoglobulin (BLG) [1]; T = 304 K,1.23 ± 0.02
same,Ksv (Stern–Volmer quenching constant),β-lactoglobulin (BLG) [1]; T = 304 K,4.76 ± 0.03 ^b ×10^4 L mol^−1
same,Kd,β-lactoglobulin (BLG) [1]; T = 304 K,3.75 µM
same,n (number of binding sites),β-lactoglobulin (BLG) [1]; T = 310 K,1.31 ± 0.03
same,Ksv (Stern–Volmer quenching constant),β-lactoglobulin (BLG) [1]; T = 310 K,4.47 ± 0.06 ^c ×10^4 L mol^−1
same,Kd,β-lactoglobulin (BLG) [1]; T = 310 K,3.92 µM
same,BLG fluorescence quenching,"β-lactoglobulin (BLG) [1]; after 10 times titration, 298 K, c(BLG) = 20 µM",63.2%
same,n (number of binding sites),β-lactoglobulin (BLG) [1]; general statement for the three temperatures,approximately 1
same,ΔG° (free energy),β-lactoglobulin (BLG) [2]; T = 298 K,-7.421 kcal/mol
same,ΔG° (free energy),β-lactoglobulin (BLG) [2]; T = 304 K,-7.543 kcal/mol
same,ΔG° (free energy),β-lactoglobulin (BLG) [2]; T = 310 K,-7.665 kcal/mol
same,ΔH° (enthalpy change),"β-lactoglobulin (BLG) [2]; from Ka at 298, 304 and 310 K",-1.34 kcal/mol
same,ΔS° (entropy change),"β-lactoglobulin (BLG) [2]; from Ka at 298, 304 and 310 K",85.44 J mol^−1 K^−1
same,fluorescence intensity of Peak 2 (3D fluorescence),β-lactoglobulin (BLG) [3]; free BLG 430.6,206.8
same,fluorescence intensity of Peak 1 (3D fluorescence),β-lactoglobulin (BLG) [3]; free BLG 522.1,395.4
same,Random Coil content of BLG,β-lactoglobulin (BLG) [4]; [9],26.47 ± 0.41 ^b %
same,α-Helix content of BLG,β-lactoglobulin (BLG) [4]; [9],14.12 ± 0.70 ^c %
same,β-Sheet content of BLG,β-lactoglobulin (BLG) [4]; [9],36.25 ± 0.25 ^b %
same,β-Turn content of BLG,β-lactoglobulin (BLG) [4]; [9],23.16 ± 0.12 ^a %
same,Random Coil content of BLG,β-lactoglobulin (BLG) [4]; [10],25.26 ± 033 ^c %
same,β-Turn content of BLG,β-lactoglobulin (BLG) [4]; [10],24.77 ± 0.54 ^b %
same,α-Helix content of BLG,β-lactoglobulin (BLG) [4]; [11],15.85% and 15.85 ± 0.93 ^b %
same,β-Sheet content of BLG,β-lactoglobulin (BLG) [4]; [11],34.12% and 34.12 ± 0.34 ^d %
same,effect on contents of free SH group of BLG,β-lactoglobulin (BLG) [5],gradually weakened
same,F max (maximum fluorescence intensity at saturating ANS),β-lactoglobulin (BLG) [6]; molar ratio 1:1,154.31 ± 3.09 ^ab
same,PSH (protein surface hydrophobicity),β-lactoglobulin (BLG) [6]; molar ratio 1:1,260.66 ± 5.21 ^b
same,Reduction Rate of PSH,"β-lactoglobulin (BLG) [6]; molar ratio 1:1, versus BLG alone",20.87 ± 0.42 ^d %
same,F max (maximum fluorescence intensity at saturating ANS),β-lactoglobulin (BLG) [6]; molar ratio 2:1,120.27 ± 2.41 ^c
same,PSH (protein surface hydrophobicity),β-lactoglobulin (BLG) [6]; molar ratio 2:1,200.45 ± 4.01 ^d
same,Reduction Rate of PSH,"β-lactoglobulin (BLG) [6]; molar ratio 2:1, versus BLG alone",39.15 ± 0.78 ^c %
same,increase of foaming stability (FS) of BLG,"β-lactoglobulin (BLG) [7]; compared with BLG alone, molar ratio of BLG to Bai/Chr 10:1",80.64%
same,increase of foaming ability (FA) of BLG,"β-lactoglobulin (BLG) [7]; compared with FA of free BLG (25.2%), molar ratios of BLG to Bai/Chr changed from 40:1 to 10:1",18.08%
same,effect on emulsifying stability (ES) of BLG,β-lactoglobulin (BLG) [8]; BLG to Bai/Chr 40:1 to 10:1,promoted the enhancement of ES
same,effect on emulsifying ability (EA) of BLG,β-lactoglobulin (BLG) [8]; with the increase of Bai or Chr concentration (BLG to Bai/Chr 40:1 to 10:1),slightly improved
